From patent US20040023884A1, “Biologically active peptides from functional domains of bactericidal/permeability-increasing protein and uses thereof” (priority 1993, published 2004)
In brackets after ≈: the same amount, converted by molar mass. Square brackets hold non-standard residues; d marks the D form. Ends that are not written are not given here. Peptide text beside a SMILES is read from it. Phe(4-NH2) = Nc1ccc(C[C@H](N)C(=O)O)cc1; 1Nal = N[C@@H](Cc1cccc2ccccc12)C(=O)O; Cha = N[C@@H](CC1CCCCC1)C(=O)O

Tests used:
[1] = system: rough mutant E. coli J5 bacteria; experiment: Radial diffusion bactericidal assay, E. coli J5; assay type: cell-based; details: for pmol added to well to achieve a 30 mm^2 bactericidal zone, E. coli J5: radial diffusion, PROBIT analysis, E. coli J5 (rough)
How it was run: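 Log-phase bacteria (3 h at 37 °C in tryptic soy broth), washed in 10 mM sodium phosphate pH 7.4, were embedded at 4×10^6 CFU/mL in underlayer agarose. BPI proteolytic fragments (5 or 10 μL) went into 3 mm wells for 3 h at 37 °C, then agarose overlay and overnight 37 °C growth. Clear zones were measured by micrometer.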

[2] = system: E. coli 0111:B4 (smooth) bacteria; experiment: Radial diffusion bactericidal assay, E. coli 0111:B4; assay type: cell-based; details: radial diffusion; PROBIT analysis; E. coli O111:B4 (smooth)
Staphylococcus aureus = experiment: Radial diffusion bactericidal assay, Staphylococcus aureus; assay type: cell-based; details: radial diffusion; PROBIT analysis; S. aureus
C. albicans = experiment: Radial diffusion fungicidal assay, Candida albicans; assay type: cell-based; details: for C. albicans: pmol required for 30 mm^2 zone: radial diffusion
Candida albicans = assay type: cell-based
[3] = 3H-heparin binding assay (affinity and capacity); details: for Heparin Capacity: heparin bound at saturation; for Kd: read-out: Heparin Affinity
How it was run: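 Bound 3H-heparin was counted by liquid scintillation after 1 h incubation at 4 °C with fragments immobilised on PVDF-bottomed wells, then washing in blocking buffer. Signal was corrected for BSA-related background, and varying amounts of rBPI23 were used as positive control.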

RAW 264.7 cells = experiment: LPS neutralization cellular proliferation assay, RAW 264.7 cells; assay type: cell-based, mouse
Description: In this assay, mouse RAW 264.7 cells (ATCC Accession No. T1B71), maintained in RPMI 1640 media (GIBCO), supplemented with 10 mM HEPES buffer (pH 7.4), 2 mM L-glutamine, penicillin (100U/mL), streptomcin (100 μg/mL), 0.075% sodium bicarbonate, […] 2-mercaptoethanol and 10% fetal bovine serum (Hyclone, Inc., Logan, Utah), were first induced by incubation in the presence of 50U/mL recombinant mouse y-interferon (Genzyme, Cambridge, Mass.) for 24 h prior to assay. Induced cells were then mechanically collected and centrifuged at 500×g at 4° C. and then resuspended in 50 mL RPMI 1640 media (without supplements), re-centrifuged and again resuspended in RPMI 1640 media (without supplements). The cells were counted and their concentration adjusted to 2×10^5 cells/mL and 100 μL aliquots were added to each well of a 96-well microtitre plate. The cells were then incubated for about 15 hours with E. coli O113 LPS (Control Standard. Assoc. of Cape Cod. Woods Hole, Mass.), which was added in 100 μL/well aliquots at a concentration of […] in serum-free RPMI 1640 media (this concentration being the result of titration experiments in which LPS concentration was varied between 50 pg/mL and 100 ng/mL). This incubation was performed in the absence or presence of BPI functional domain peptides in varying concentrations between 25 ng/mL and 50 μg/mL. Recombinant human BPI was used as a positive control at a concentration of 1 μg/mL. Cell proliferation was quantitatively measured by the addition of 1 μCi/well [^3H]-thymidine 5 hours after the time of initiation of the assay. After the 15-hour incubation, labeled cells were harvested onto glass fiber filters with a cell harvester (Inotech Biosystems, EQ-384, Sample Processing and Filter Counting System, Lansing, Mich.).

Molecule	pmol added to well to achieve a 30 mm^2 bactericidal zone, E. coli J5 [1]	pmol added to well to achieve a 30 mm^2 bactericidal zone, E. coli O111:B4 [2]	pmol added to well to achieve a 30 mm^2 bactericidal zone, S. aureus (Staphylococcus aureus)	C. albicans: pmol required for 30 mm^2 zone (C. albicans) [pmol]	MIC C. alb (Candida albicans) [µg/mL]	Heparin Capacity [3] [ng]	Kd [3] [nM]	fold decrease in the radial diffusion assay test (fungicidal activity) (C. albicans; vs BPI.13)	EC50 (peptide concentration at which the growth inhibitory effect of LPS was reversed by 50%) (RAW 264.7 cells)	IC50 (peptide concentration at which RAW cell growth was inhibited by 50%) (RAW 264.7 cells)	activity of position 95 substitution variants (in words) ([1]; activity not further specified)
KSKVGWLIQWFHKK [BPI.142]	922.21 pmol	b (no detectable activity up to 5 μg/well)	b (no detectable activity up to 5 μg/well)	1243.79	12.50						
KSKVGWLIALFHKK [BPI.39]	316.20 pmol	b (no detectable activity up to 5 μg/well)		1791.81	12.50	335.6	757	greater than 8 fold			
KSKVGWLIQLFLKK [BPI.87]	188.72 pmol	23,949.00 pmol	868,991.70 pmol	>1535.78		280.0	575				
KWAFAKKQKKRLKRQWLKKF [BPI.150]	220.00 pmol	3,610.00 pmol	b (no detectable activity up to 5 μg/well)	>2380.67							
KSKVLWLIQLFHKK [BPI.85]	227.35 pmol	295,208.43 pmol	14,677.13 pmol	>1881.18		233.1	682				
KSKVGVLIQLFHKK [BPI.166]	514.00 pmol	9,586.00 pmol	b (no detectable activity up to 5 μg/well)	170.65	3.13						
CC[C@H](C)[C@H](NC(=O)[C@H](CC(C)C)NC(=O)[C@H](CC1CCCCC1)NC(=O)CNC(=O)[C@@H](NC(=O)[C@H](CCCCN)NC(=O)[C@H](CO)NC(=O)[C@@H](N)CCCCN)C(C)C)C(=O)N[C@@H](CCC(N)=O)C(=O)N[C@@H](CC(C)C)C(=O)N[C@@H](Cc1ccccc1)C(=O)N[C@@H](Cc1c[nH]cn1)C(=O)N[C@@H](CCCCN)C(=O)N[C@@H](CCCCN)C(=O)O [BPI.144] (H-KSKVG[Cha]LIQLFHKK-OH; N-terminus and C-terminus assumed)	510.02 pmol	b (no detectable activity up to 5 μg/well)	b (no detectable activity up to 5 μg/well)	695.19	12.50 (≈ 7.44 µM)						
CC[C@H](C)[C@H](NC(=O)[C@H](CC(C)C)NC(=O)[C@H](Cc1c[nH]c2ccccc12)NC(=O)[C@H](Cc1ccc(N)cc1)NC(=O)[C@@H](NC(=O)[C@H](CCCCN)NC(=O)[C@H](CO)NC(=O)[C@@H](N)CCCCN)C(C)C)C(=O)N[C@@H](CCC(N)=O)C(=O)N[C@@H](CC(C)C)C(=O)N[C@@H](Cc1ccccc1)C(=O)N[C@@H](Cc1c[nH]cn1)C(=O)N[C@@H](CCCCN)C(=O)N[C@@H](CCCCN)C(=O)O [BPI.134] (H-KSKV[Phe(4-NH2)]WLIQLFHKK-OH; N-terminus and C-terminus assumed)	162.50 pmol	580.11 pmol	b (no detectable activity up to 5 μg/well)	1254.98	12.50 (≈ 6.88 µM)						
KSKVGWLIQLFFKK [BPI.94]	922.54 pmol	3,658.80 pmol	9,446.60 pmol	>922.54		216.1	407				
KSKVKFLIQLFHKK [BPI.138]	64.57 pmol	995.40 pmol	b (no detectable activity up to 5 μg/well)	256.82	3.13						
KSKVFWLIQLFHKK [BPI.95]	330.88 pmol	2,809.70 pmol	b (no detectable activity up to 5 μg/well)	>1397.64		224.5	551				
CC(C)C[C@H](NC(=O)[C@H](Cc1ccccc1)NC(=O)[C@H](CCCNC(=N)N)NC(=O)[C@H](Cc1cccc2ccccc12)NC(=O)[C@H](Cc1cccc2ccccc12)NC(=O)[C@H](C)NC(=O)[C@H](CCCCN)NC(=O)[C@H](Cc1c[nH]c2ccccc12)NC(=O)[C@H](CCCCN)NC(=O)[C@H](CCCCN)NC(=O)[C@H](CC(C)C)NC(=O)[C@H](Cc1ccccc1)NC(=O)[C@H](CCCNC(=N)N)NC(=O)[C@H](Cc1cccc2ccccc12)NC(=O)[C@H](Cc1cccc2ccccc12)NC(=O)[C@H](C)NC(=O)[C@H](CCCCN)NC(=O)[C@H](Cc1c[nH]c2ccccc12)NC(=O)[C@H](CCCCN)NC(=O)[C@H](CCCCN)NC(=O)[C@H](CC(C)C)NC(=O)[C@H](Cc1ccccc1)NC(=O)[C@H](CCCNC(=N)N)NC(=O)[C@H](Cc1cccc2ccccc12)NC(=O)[C@H](Cc1cccc2ccccc12)NC(=O)[C@H](C)NC(=O)[C@H](CCCCN)NC(=O)[C@H](Cc1c[nH]c2ccccc12)NC(=O)[C@@H](N)CCCCN)C(=O)N[C@@H](CCCCN)C(=O)O [BPI.157] (H-KWKA[1Nal][1Nal]RFLKKWKA[1Nal][1Nal]RFLKKWKA[1Nal][1Nal]RFLK-OH; N-terminus and C-terminus assumed)					>100.00				comparable to BPI.29	lower IC5	
IKISGKWKAQFDRFLK [BPI.76]	10,519.55 pmol	b (no detectable activity up to 5 μg/well)	b (no detectable activity up to 5 μg/well)			144.4	128		>50 µg/mL	— (No proliferation decrease up to 50 μg/ml)	dramatically reduced activity, to levels lower than the original peptide (BPI.2)
CKSKVGWLIQLFHKKC [BPI.137]	1,390.00 pmol	87,980.00 pmol	b (no detectable activity up to 5 μg/well)	>2285.73							
KWKAAARFLKKSKVGWLIQLFHKK [BPI.145]	250.00 pmol	9,561.00 pmol	b (no detectable activity up to 5 μg/well)	>1886.58							
